Assay results as given in US8633226B2, “Piperidinyl derivative as a modulator of chemokine receptor activity” (Bristol-Myers Squibb Company, priority 2008, dated 2014).
pKi: −log10 of the molar value. Like-named read-outs stand apart in the source and are kept apart here.

Key:
Protein binding, rabbit = type: in vitro ADME
Human CCR1 = Human CCR1 (Homo sapiens (Human), UniProt P32246); assay: Human CCR1 THP-1 binding assay; conditions: [125I]-MIP-1α competition, THP-1 cells
Experimental: For radioligand competition studies, a final concentration of 1×10^5 THP-1 monocytic leukemia cells are combined with 100 μg of LS WGA PS beads (Amersham, Cat.#: RPNQ 0260) in 40 μL of assay buffer (RPMI 1640 without phenol red, 50 mM HEPES, 5 mM MgCl2, 1 mM CaCl2, 0.1% BSA). The THP-1 cell/bead mixture was added to each well of a 384-well assay plate (PerkinElmer, Cat. #:6007899) containing test compound in 3-fold serial dilution, with final concentrations ranging from 8 μM to 0.14 nM. A final concentration of 0.1 nM [^125I]-MIP-1α (PerkinElmer, Cat. #NEX298) in 20 μL assay buffer was added to the reaction. Unlabeled MIP-1α was added in excess to some wells to determine non-specific binding. Sealed assay plates were incubated at room temperature for 12 h then analyzed by LEADseeker™.
The competition data of the test compound over a range of concentrations is plotted as percentage inhibition of radioligand specifically bound in the absence of test compound (percent of total signal). After correcting for non-specific binding, IC50 values are determined. The IC50 value is defined as the concentration of test compound needed to reduce [^125I]-MIP-1α specific binding by 50% and is calculated using the four parameter logistic equation to fit the normalized data. The Ki values are determined by application of the Cheng-Prusoff equation to the IC50 values, where Ki=IC50/(1+ligand concentration/Kd). The Kd of [^125I]-MIP-1α in THP-1 cells is 0.1 nM. Each experiment was run in duplicate.

hERG = hERG (Homo sapiens (Human), UniProt Q12809); assay: hERG patch clamp assay; type: cell-based; conditions: HEK-293 cells stably expressing hERG, pH 7.4, protein-free buffer, read-out: hERG, % inh @ 30 μM
Experimental: Whole-cell patch-clamp was used to directly measure hERG tail currents in HEK-293 cells stably expressing the cloned hERG potassium channel α subunit. Effects of compounds were calculated by measuring inhibition of peak tail current. Experiments were carried out using an aqueous buffer with pH 7.4 at room temperature. There was no protein in the assay buffer. The test concentrations reported are nominal free drug levels.

Protein binding, human = type: in vitro ADME
[1] = target: human cardiac L-type Ca channel (α1C) and its β subunit (Homo sapiens (Human), UniProt Q13936); assay: L-type calcium channel whole-cell patch-clamp assay; type: cell-based; conditions: HEK-293 cells, protein-free buffer
Experimental: In addition to the potential for interaction with the L-type calcium channel, whole-cell patch-clamp was used to directly measure inward calcium currents in HEK-293 cells stably expressing the cloned human cardiac L-type Ca channel (α1C) and its β subunit. Effects of compounds were calculated by measuring inhibition of peak current. Experiments were carried out using an aqueous buffer at pH 7.4 and at room temperature. There is no protein in the buffer and drug concentrations reported are nominal free drug levels.

[2] = target: human cardiac sodium channel SCN5A (Homo sapiens (Human), UniProt Q14524); assay: Sodium channel whole-cell patch-clamp assay; type: cell-based; conditions: HEK-293 cells expressing human cardiac sodium channel SCN5A, pH 7.4, protein-free buffer, read-out: Na, % inh
Experimental: Whole-cell patch-clamp was used to directly measure inward sodium currents in HEK-293 cells expressing the human cardiac sodium channel, SCN5A. After reach steady-state effect in the presence of drug, rate-dependence was assessed by stimulation at frequencies of 1 Hz and 4 Hz. Experiments were carried out using an aqueous buffer at pH 7.4 and at room temperature. There is no protein in the buffer and drug concentrations reported are nominal free drug levels. Test article was evaluated up to 10 μM (protein-free buffer). Rate-dependence of inhibition was assessed by stimulation at frequencies of 1 Hz and 4 Hz.

anesthetized rabbits = assay: Electrocardiography in anesthetized rabbits; type: in vivo; conditions: anesthetized rabbit; for Cmax: Free drug at QT effect dose / Cmax: Free drug at NOEL dose: iv
Experimental: (§1) A dose-response study of test compound was conducted in anesthetized rabbits to assess the cardiac electrophysiologic profile established in the cellular ion channel assays.
(§2) Experiments were performed in propofol-fentanyl anesthetized closed-chest male rabbits. A body surface electrocardiogram (ECG) and an intra-cardiac His-bundle electrogram were continuously monitored and recorded during the studies, using a PoNeMah system and a Prucka electrophysiological recording system, respectively. Test compound was prepared on the day of study in a vehicle of PEG400:ethanol:water (1:1:1) at a dosing concentration of 30 mg/mL. Test compound (n=3) or vehicle (n=3) was given intravenously over 5 minutes via an infusion pump at incremental doses of 3, 10 and 30 mg/kg. The interval between doses was 10 minutes, allowing for a 5-minute test agent infusion and a 5-minute rest period. Blood was sampled at baseline (pre-drug infusion) and immediately at the end of each infusion. For the 30 mg/kg dose, additional blood samples were taken at 10, 20 and 30 minutes after the end of infusion.
(§3) PR interval, QRS duration and QT interval were averaged from a 1 minute ECG recording period at time of blood sampling. QT interval was corrected for heart rate effects using both Fridericia (QTcf) and Van der Water (QTcv) formulae. AH and HV intervals, representing A-V node conduction and His-Purkinje conduction, respectively, were assessed by manual measurements from the His-bundle electrogram. Data were expressed as percent change from pre-drug baseline (mean±SEM) for PR, QRS, AH and HV intervals as well as delta change from the pre-drug infusion baseline (mean±SEM) for QTc intervals. Changes of ≧10% in PR, QRS, and AH intervals, and 20% in HV interval, as well as >10 ms in QTc interval are considered significant based on experience with the model.

[3] = Electrocardiography in anesthetized rabbits; type: in vivo; conditions: male, blood, anesthetized rabbit, iv
Experimental: as §1, §2, §3

Human PXR = Human PXR (Homo sapiens (Human), UniProt O75469); assay: PXR transactivation assay; type: cell-based; conditions: HepG2 cells, CYP3A-Luc reporter; reported as EC60
Excerpt: The cell culture medium used is DMEM. […] Charcoal/dextran treated fetal bovine serum (FBS) was purchased from Hyclone (Logan, Utah). HepG2 cells were obtained from ATCC (Manassas, Va.). Human PXR-pcDNA3 and luciferase reporter containing CYP3A4 promoter, CYP3A-Luc, were generated at Bristol-Myers Squibb. White tissue culture (TC)-surface 384-well plates were purchased from Perkin Elmer (Boston, Mass.). Luciferase substrate (Steady-Glo) was purchased from Promega (Madison, Wis.). Control compounds rifampicin, mifepristone, and sulfinpyrazone were purchased from Sigma (St. Louis, Mo.).
Culture of HepG2 cells is performed in T175 flasks using DMEM containing 10% FBS. The transfection mixture contains 1 μg/mL of PXR-pcDNA3 plasmid DNA, 20 μg/ml of Cyp3A-Lue plasmid DNA, 90 μL/mL of Lipofectamine 2000, and serum-free medium. After incubating at room temperature for 20 minutes, the transfection mixture (1 ml per flask) is applied to the cells in fresh medium (20 mL per flask), and flasks incubated at 37° C. (5% CO2) overnight.
The flasks are then tapped vigorously to break up cell aggregates. After the addition of 8 mL of DMEM containing 5% charcoal/dextran-treated FBS, the entire mixture is transferred to conical tubes. Cells are then centrifuged at 1000 rpm for 5 minutes. Cell pellets are resuspended to a final count of ˜7×10^6 cells/ml, in freezing media (DMEM containing 20% serum and 10% DMSO). The cell suspension is aliquoted into 15-mL polypropylene tubes, 5 mL per tube. Cells are slowly frozen by placing in a Styrofoam-insulated container at −80° C. overnight. Vials are transferred to an Ultracold (−140° C.) freezer after 24 hours for long-term storage.
Vials of cryopreserved cells are thawed rapidly in a warm water bath for five minutes. Cells are pooled and diluted to 50 mL in a 50-mL conical vial. The thawed cells are centrifuged at 1500 rpm for 5 minutes to collect the cells and the supernatant discarded. Cells are then resuspended in fresh Media II (DMEM containing 5% charcoal/dextran-treated FBS, 1% Penicillin/Streptomycin, 100 μM Non-essential Amino Acids, 1 mM Sodium Pyruvate, and 2 mM L-Glutamine), counted using the Guava Cell Counter, and diluted to 1.6×10^5 cells/ml in the same media.
Fifty microliters of cell mixture is added to wells in columns 1-23 of white tissue-culture treated 384-well plates containing 0.25 μL of test compound dissolved in 100% DMSO. Fifty microliters of Media II is added to wells in column 24. The plates are incubated at 37° C. (5% CO2) for 24 hours, then 5 μL of Alamar Blue reagent (Trek Diagnostics, Cat #00-100) is added to each well. Plates are then incubated an additional two hours at 37° C., 5% CO2 and then one hour at room temperature. […] After the fluorescence is measured, 25 μL of luciferase substrate (Steady-Glo, Promega) is added to each well. The plates are incubated for fifteen minutes at room temperature, after which the luminescence is read on a PheraStar (BMG Labtech) plate reader.
Rifampicin (10 μM), a well-known agonist of PXR, is included in each plate as an internal standard and positive control. The data is then expressed as percent control (% CTRL), where the control signal is the signal from the 10 μM rifampicin and the blank signal is that from the DMSO vehicle. % CTRL=((Compound signal−Blank signal)/(Control signal−Blank signal))*100
The EC50 is defined as the concentration corresponding to half of the maximal response derived from the fitted 20-point curve as determined using a four-parameter logistic regression model. Additionally, compounds may also be reported as EC20 or EC60.

[4] = In vitro metabolism assay, human liver microsomes, Assay Conditions A; type: in vitro ADME; conditions: 0.5 μM compound, 10 minutes, 37° C.
Experimental: Test compound is received as a 3.5 mM stock solution in 100 percent DMSO. Compound is diluted to create a 50 μM acetonitrile (ACN) solution containing 1.4% DMSO, which is then used as a 100× stock for incubation with microsomes. Each compound is tested in duplicate separately in each of three species in the Metabolic Stability-Human, Rat, and Mouse assay suite or as individual species in the Metabolic Stability-Dog or Metabolic Stability-Monkey suites. Compound, NADPH and liver microsome solutions are combined for incubation in three steps:
152 μL of liver microsome suspension, protein concentration of 1.1 mg/mL in 100 mM NaPi, pH 7.4, 6.6 mM MgCl2 buffer, is pre-warmed at 37° C.
• 1) 1.7 μL of 50 μM compound (98.6% ACN, 1.4% DMSO) is added to the same tube and pre-incubated at 37° C. for 5 minutes. • 2) The reaction is initiated by the addition of 17 μL of pre-warmed 10 mM NADPH solution in 100 mM NaPi, pH 7.4. • 3) Reaction components are mixed well, and 75 μL are immediately transferred into 150 μl quench/stop solution (zero-time point, T0). Reactions are incubated at 37° C. for 10 minutes and then an additional 75 μL aliquot is transferred into 150 μL quench solution. Acetonitrile containing 100 μM DMN (a UV standard for injection quality control), is used as the quench solution to terminate metabolic reactions. • 4) Quenched mixtures are centrifuged at 1500 rpm (˜500×g) in an Allegra X-12 centrifuge, SX4750 rotor (Beckman Coulter Inc., Fullerton, Calif.) for fifteen minutes to pellet denatured microsomes. A volume of 90 μL of supernatant extract, containing the mixture of parent compound and its metabolites, is then transferred to a separate 96-well plate for UV-LC/MS-MS analysis to determine the percent of parent compound that is remaining in the mixture. • 5)

Chain of Human CCR1 (P32246 whole entry): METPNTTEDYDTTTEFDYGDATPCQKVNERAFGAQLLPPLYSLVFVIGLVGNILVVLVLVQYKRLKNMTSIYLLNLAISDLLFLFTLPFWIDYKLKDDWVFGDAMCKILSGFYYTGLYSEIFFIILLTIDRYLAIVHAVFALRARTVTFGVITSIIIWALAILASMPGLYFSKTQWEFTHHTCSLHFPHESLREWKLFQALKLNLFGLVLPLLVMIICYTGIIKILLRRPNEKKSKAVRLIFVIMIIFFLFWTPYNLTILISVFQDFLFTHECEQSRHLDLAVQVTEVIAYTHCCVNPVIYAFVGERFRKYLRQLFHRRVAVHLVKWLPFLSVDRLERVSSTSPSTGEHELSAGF
Chain of hERG (Q12809 whole entry): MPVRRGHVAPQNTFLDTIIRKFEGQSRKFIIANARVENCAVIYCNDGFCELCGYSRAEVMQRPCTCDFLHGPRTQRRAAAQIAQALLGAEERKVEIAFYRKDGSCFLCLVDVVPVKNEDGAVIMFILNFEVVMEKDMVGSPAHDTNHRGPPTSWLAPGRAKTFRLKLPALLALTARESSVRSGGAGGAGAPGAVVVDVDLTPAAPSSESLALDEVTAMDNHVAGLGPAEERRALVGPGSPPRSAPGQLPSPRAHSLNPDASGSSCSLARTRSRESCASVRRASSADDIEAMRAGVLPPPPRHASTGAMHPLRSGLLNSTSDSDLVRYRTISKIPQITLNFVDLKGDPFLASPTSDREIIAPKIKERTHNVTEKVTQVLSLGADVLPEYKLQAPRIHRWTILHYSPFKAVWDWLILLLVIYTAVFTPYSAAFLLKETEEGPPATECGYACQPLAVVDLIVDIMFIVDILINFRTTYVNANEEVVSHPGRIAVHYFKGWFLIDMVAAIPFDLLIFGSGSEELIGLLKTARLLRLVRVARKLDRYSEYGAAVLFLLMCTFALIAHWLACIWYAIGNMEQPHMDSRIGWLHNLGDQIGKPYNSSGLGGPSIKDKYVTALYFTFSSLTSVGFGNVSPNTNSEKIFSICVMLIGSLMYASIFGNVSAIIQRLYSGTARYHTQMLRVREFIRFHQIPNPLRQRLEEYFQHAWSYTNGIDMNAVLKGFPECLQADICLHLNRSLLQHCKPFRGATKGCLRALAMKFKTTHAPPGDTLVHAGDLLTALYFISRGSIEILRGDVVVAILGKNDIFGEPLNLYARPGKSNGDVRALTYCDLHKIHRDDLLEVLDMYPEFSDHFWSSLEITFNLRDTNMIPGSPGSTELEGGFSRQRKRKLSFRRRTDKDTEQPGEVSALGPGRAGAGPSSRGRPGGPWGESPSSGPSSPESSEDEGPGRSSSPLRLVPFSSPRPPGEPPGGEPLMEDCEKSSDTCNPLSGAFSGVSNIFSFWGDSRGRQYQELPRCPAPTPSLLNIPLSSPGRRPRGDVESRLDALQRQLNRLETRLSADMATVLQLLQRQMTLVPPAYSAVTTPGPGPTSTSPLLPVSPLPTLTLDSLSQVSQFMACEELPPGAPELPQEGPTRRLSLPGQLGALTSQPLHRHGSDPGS
Chain of Human PXR (O75469 whole entry): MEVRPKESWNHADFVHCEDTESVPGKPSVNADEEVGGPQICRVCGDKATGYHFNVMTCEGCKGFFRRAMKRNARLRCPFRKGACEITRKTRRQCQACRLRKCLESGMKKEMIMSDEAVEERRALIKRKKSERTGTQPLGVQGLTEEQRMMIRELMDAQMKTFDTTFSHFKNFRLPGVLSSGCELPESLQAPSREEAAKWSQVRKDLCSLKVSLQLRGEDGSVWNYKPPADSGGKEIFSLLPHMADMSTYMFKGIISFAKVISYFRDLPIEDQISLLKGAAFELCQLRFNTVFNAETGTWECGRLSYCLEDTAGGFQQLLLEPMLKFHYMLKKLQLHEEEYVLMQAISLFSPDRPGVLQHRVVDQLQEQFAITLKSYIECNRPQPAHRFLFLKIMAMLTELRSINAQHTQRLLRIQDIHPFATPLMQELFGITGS
Chain of human cardiac L-type Ca channel (α1C) and its β subunit (Q13936 whole entry): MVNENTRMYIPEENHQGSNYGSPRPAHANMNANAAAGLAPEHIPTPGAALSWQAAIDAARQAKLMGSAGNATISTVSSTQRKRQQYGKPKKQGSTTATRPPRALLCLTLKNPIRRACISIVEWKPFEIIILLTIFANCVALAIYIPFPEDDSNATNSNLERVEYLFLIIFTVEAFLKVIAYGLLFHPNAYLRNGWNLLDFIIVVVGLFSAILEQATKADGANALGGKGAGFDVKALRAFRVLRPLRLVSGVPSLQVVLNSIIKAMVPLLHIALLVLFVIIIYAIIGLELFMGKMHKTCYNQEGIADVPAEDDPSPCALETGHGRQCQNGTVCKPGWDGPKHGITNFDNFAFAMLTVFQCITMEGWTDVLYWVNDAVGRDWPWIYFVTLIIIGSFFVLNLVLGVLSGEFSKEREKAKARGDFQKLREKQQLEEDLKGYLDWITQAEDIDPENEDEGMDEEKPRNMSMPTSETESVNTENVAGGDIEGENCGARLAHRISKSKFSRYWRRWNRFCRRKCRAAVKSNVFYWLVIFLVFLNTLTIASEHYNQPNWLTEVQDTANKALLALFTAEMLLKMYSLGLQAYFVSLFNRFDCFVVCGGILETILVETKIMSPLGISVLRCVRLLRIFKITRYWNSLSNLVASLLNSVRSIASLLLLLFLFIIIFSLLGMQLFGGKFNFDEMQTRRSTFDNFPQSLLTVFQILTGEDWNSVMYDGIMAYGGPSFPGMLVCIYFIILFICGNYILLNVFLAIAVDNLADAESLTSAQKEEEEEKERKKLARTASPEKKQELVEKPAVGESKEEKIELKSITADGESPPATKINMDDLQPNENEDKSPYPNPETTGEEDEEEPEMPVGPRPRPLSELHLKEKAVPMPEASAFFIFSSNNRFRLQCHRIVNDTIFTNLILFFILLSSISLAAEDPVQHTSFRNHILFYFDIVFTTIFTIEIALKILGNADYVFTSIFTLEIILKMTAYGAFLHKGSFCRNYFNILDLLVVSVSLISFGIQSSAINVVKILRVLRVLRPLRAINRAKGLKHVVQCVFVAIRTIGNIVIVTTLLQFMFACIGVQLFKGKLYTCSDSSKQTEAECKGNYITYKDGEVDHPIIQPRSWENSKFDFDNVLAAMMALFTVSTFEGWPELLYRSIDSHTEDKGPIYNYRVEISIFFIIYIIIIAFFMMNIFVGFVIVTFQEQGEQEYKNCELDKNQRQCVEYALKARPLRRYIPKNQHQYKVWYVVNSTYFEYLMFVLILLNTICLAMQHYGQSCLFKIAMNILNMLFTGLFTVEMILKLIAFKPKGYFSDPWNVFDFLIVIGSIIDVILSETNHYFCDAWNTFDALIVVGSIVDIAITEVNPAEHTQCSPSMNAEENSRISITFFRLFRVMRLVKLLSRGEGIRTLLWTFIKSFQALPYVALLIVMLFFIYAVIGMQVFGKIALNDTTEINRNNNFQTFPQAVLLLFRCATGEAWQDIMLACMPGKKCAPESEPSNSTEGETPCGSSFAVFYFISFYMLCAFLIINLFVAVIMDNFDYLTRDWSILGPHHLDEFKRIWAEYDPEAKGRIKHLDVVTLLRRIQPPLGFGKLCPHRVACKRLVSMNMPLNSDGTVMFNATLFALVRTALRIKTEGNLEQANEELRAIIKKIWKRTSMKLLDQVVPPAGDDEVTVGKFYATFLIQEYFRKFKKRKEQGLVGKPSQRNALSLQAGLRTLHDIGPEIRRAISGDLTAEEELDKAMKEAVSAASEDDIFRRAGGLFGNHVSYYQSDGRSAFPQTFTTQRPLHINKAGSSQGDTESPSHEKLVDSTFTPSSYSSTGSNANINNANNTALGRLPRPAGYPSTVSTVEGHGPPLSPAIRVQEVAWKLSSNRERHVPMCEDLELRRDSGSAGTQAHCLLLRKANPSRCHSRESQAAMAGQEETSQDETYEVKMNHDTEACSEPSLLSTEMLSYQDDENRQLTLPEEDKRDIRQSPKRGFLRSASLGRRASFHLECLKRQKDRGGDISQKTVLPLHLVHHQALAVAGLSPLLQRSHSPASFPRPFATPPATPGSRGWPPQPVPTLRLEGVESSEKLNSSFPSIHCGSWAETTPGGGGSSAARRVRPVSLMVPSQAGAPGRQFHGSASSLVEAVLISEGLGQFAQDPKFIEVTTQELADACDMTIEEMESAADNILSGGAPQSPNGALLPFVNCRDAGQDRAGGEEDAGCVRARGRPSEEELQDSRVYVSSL
Chain of human cardiac L-type Ca channel (α1C) and its β subunit (Q08289 whole entry partner): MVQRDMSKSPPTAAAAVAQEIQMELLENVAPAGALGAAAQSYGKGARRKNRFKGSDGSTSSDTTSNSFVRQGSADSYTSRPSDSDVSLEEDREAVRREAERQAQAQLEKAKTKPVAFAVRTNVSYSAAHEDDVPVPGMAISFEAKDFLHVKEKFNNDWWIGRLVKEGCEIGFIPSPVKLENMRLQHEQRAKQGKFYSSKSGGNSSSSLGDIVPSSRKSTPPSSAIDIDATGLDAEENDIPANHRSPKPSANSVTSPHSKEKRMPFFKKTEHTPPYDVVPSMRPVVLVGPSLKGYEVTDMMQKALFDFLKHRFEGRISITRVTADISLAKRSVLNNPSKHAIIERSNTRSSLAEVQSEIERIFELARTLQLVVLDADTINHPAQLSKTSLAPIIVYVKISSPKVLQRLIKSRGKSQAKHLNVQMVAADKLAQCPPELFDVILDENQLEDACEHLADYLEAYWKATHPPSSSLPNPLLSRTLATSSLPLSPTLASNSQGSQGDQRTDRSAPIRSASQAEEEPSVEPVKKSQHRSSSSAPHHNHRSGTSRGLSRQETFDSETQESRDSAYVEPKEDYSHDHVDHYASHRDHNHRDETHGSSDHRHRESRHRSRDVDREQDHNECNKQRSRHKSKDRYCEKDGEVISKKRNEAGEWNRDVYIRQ

Row | Compound | fraction unbound (Protein binding, rabbit) | pKi (Human CCR1) | inhibition at 30 µM (hERG) | fraction unbound (Protein binding, human) | Ca, % inh ([1]; 30 μM) | inhibition at 10 µM [2] | QT effect Dose (anesthetized rabbits; iv infusion) | QTcf, delta (anesthetized rabbits; iv infusion, at QT effect dose 10 mg/kg) | Cmax: Free drug at QT effect dose (anesthetized rabbits; 10 mg/kg) | Cmax: Free drug at NOEL dose (anesthetized rabbits; NOEL not identified (<10 mg/kg)) | Cmax ([3]; 10 mg/kg, read-out: Cmax: Total drug at QT effect dose) | PXR EC60 (Human PXR) | Human Liver Microsomal Metabolism % remaining (Assay Conditions A) [4] | Ca, % inh ([1]; 10 μM) | NOEL dose (No Observed Effect Level) (anesthetized rabbits; iv infusion) | QTcf, delta (anesthetized rabbits; iv infusion, at QT effect dose 30 mg/kg) | Cmax: Free drug at QT effect dose (anesthetized rabbits; 30 mg/kg) | Cmax: Free drug at NOEL dose (anesthetized rabbits; NOEL dose 10 mg/kg) | Cmax ([3]; 30 mg/kg, read-out: Cmax: Total drug at QT effect dose) | Cmax ([3]; NOEL dose 10 mg/kg, read-out: Cmax: Total drug at NOEL dose)
1 | CC(C)[C@@H](NC(=O)[C@@H]1CC[C@@H](O)C1)C(=O)N1CC[C@](O)(c2ccc(Cl)cc2)C(C)(C)C1 [EX# 572] | 0.13 | 8.82 | 32% | 0.16 | 19% @ 30 μM | 25% | 10 mg/kg | 22 ms | 6.3 µM | < 6.3 µM | 48.6 µM |  |  |  |  |  |  |  |  | 
2 | CC(C)NC(=O)N[C@@H](C(=O)N1CC[C@](O)(c2ccc(Cl)cc2)C(C)(C)C1)C(C)C [#850] |  | 9.30 |  |  |  |  |  |  |  |  |  | 10200 nM | 99% (A) |  |  |  |  |  |  | 
3 | CC(C)[C@@H](NC(=O)c1cccc(S(N)(=O)=O)c1)C(=O)N1CC[C@](O)(c2ccc(Cl)cc2)C(C)(C)C1 [EX# 491] | 0.06 | 8.68 | 27% | 0.05 |  | 13% | 30 mg/kg |  |  |  |  |  |  | 22% @ 10 μM | 10 mg/kg | 17 ms | 5.5 µM | 3.1 µM | 138 µM | 77 µM
4 | CC[C@@H](C)NC(=O)N[C@@H](C(=O)N1CC[C@](O)(c2ccc(Cl)cc2)C(C)(C)C1)C(C)C [#897] |  | 8.68 |  |  |  |  |  |  |  |  |  | >50000 nM | 59% (A) |  |  |  |  |  |  | 
